# Experimental data: ChEMBL document CHEMBL1159196, “Lignans interfering with 5 alpha-dihydrotestosterone binding to human sex hormone-binding globulin” (J Nat Prod, 1998)
# Experiments:
# [1] = molecular target: T1, Sex hormone-binding globulin (Homo sapiens) (UniProt P04278); assay: Binding affinity to SHBG
# T1 sequence (whole entry): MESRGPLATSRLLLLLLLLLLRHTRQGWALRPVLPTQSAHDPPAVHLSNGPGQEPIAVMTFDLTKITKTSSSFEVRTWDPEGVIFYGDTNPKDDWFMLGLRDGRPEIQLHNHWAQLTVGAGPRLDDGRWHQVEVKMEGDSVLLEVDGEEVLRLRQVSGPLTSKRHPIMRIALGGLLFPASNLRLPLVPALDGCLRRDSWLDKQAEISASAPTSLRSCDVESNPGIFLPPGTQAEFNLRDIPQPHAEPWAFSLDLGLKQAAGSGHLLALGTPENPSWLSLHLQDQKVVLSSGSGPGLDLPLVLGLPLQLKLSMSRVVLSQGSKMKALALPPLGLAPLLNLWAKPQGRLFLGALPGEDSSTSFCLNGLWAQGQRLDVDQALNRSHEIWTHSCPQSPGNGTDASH
# [2] = molecular target: T2, Sex hormone-binding globulin (Homo sapiens, UniProt P04278); assay: Displacement of [3H]DHT from human serum SHBG
# T2 sequence (P04278 whole entry): T1 sequence (whole entry)
# [3] = molecular target: T1, Sex hormone-binding globulin (Homo sapiens); assay: Binding affinity to SHBG at 4 degC
# [4] = molecular target: T1, Sex hormone-binding globulin (Homo sapiens); assay: Binding affinity to human serum SHBG at 4 degC by competitive inhibition assay
Compound,Ka [1],IC50 [2],other results
C[C@]12CC[C@H]3[C@@H](CCC4=CC(=O)CC[C@@]43C)[C@@H]1CC[C@@H]2O,1 ×10⁹ /M,,
C[C@]12CC[C@@H]3c4ccc(O)cc4CC[C@H]3[C@@H]1CC[C@@H]2O,5 ×10⁸ /M,,
O=C1OCC(Cc2cccc(O)c2)C1Cc1cccc(O)c1 (racemic),,620 µM,
COc1cc(C[C@@H](CO)[C@H](CO)Cc2ccc(O)c(OC)c2)ccc1O [(+)-SECOISOLARICIRESINOL],,230 µM,
C[C@]12CCC(=O)C[C@@H]1CC[C@@H]1[C@@H]2CC[C@]2(C)[C@@H](O)CC[C@@H]12,2 ×10⁹ /M,,
COc1cc(C[C@H]2COC[C@@H]2Cc2ccc(O)c(OC)c2)ccc1O,,,Ka [3]: 0.98 ×10⁹ /M; Ka [4]: 3.2 ×10⁶ /M
COc1cc(C[C@H]2COC(=O)[C@@H]2Cc2ccc(O)c(OC)c2)ccc1O [MATAIRESINOL],,52 µM,
